# Assay results as given in ChEMBL document CHEMBL1154101, “Purinergic P2X(7) receptor antagonists: Chemistry and fundamentals of biological screening” (Bioorg Med Chem, 2009).
# Columns and labels:
# [1] = target: T1, P2X purinoceptor 7 (Homo sapiens, UniProt Q99572); assay: Antagonist activity at P2X7 receptor in human THP1 cells assessed as inhibition of BzATP-induced pore formation; assay type: functional, cell-based, THP-1
# T1 sequence (Q99572 whole entry): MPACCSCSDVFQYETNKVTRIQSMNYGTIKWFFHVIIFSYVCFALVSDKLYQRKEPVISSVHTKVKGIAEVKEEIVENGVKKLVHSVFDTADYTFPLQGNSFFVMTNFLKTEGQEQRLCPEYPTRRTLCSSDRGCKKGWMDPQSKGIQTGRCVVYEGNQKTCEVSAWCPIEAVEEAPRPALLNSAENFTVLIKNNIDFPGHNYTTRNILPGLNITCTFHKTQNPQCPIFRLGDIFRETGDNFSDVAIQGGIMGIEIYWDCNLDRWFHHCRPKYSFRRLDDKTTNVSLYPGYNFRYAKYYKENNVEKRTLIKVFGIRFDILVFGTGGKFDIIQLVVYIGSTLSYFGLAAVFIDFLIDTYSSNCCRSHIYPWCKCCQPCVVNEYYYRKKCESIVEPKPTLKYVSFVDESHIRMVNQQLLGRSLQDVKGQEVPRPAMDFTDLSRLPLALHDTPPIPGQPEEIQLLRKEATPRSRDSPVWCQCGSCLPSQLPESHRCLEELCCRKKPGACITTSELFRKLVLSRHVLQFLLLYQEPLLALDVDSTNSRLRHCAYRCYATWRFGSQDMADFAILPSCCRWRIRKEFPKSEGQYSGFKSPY
# [2] = target: T1, P2X purinoceptor 7; assay: Antagonist activity at human recombinant P2X7 receptor expressed in human 1321N1 cells assessed as inhibition of BzATP-induced pore formation flux by fluorometric assay; assay type: functional, cell-based
# [3] = target: T1, P2X purinoceptor 7; assay: Antagonist activity at human recombinant P2X7 receptor expressed in human THP1 cells assessed as inhibition of BzATP-induced IL1-beta release by enzyme-linked immunosorbent assay; assay type: functional, cell-based, THP-1
# [4] = target: T2, P2X purinoceptor 7 (Rattus norvegicus, UniProt Q64663); assay: Binding affinity at rat P2X7 receptor
# T2 sequence (Q64663 whole entry): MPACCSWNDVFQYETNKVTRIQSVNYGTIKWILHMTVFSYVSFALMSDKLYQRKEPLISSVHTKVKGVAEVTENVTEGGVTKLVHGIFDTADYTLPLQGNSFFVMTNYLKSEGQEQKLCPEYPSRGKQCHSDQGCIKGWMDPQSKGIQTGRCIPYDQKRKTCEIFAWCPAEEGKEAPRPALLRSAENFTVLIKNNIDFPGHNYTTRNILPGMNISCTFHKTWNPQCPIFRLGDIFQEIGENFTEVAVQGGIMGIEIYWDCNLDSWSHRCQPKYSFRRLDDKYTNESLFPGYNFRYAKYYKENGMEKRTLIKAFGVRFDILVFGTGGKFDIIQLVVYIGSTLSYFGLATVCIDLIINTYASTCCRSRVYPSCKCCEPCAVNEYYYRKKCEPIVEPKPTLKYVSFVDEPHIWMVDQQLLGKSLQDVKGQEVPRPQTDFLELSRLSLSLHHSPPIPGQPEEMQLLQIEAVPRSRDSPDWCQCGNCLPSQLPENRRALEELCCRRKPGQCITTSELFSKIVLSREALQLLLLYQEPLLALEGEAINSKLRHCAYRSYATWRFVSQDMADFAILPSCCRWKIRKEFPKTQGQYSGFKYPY
SMILES,IC50 [1] [nM],also measured
N=C1N[C@@H]2O[C@@H]3NC(=N)N[C@]34[C@H]([C@H](CNC(=O)c3cc(Br)c(Br)[nH]3)[C@@H](CNC(=O)c3cc(Br)c(Br)[nH]3)[C@@H]4O[C@H]3[C@H](CNC(=O)c4cc(Br)c(Br)[nH]4)[C@@H](CNC(=O)c4cc(Br)c(Br)[nH]4)[C@@H]4[C@]5(O)NC(=N)N[C@@H]5O[C@@H]5NC(=N)N[C@]453)[C@]2(O)N1 [STYLISSADINE A],700,–
COc1ccc(CC(=O)NC(N/C(=N/C#N)Nc2cccc3ncccc23)C(C)(C)C)cc1OC (stereo unspecified),–,IC50 [2]: 92 nM; IC50 [3]: 156 nM
N=C1N[C@@H]2O[C@@H]3NC(=N)N[C@]34[C@H]([C@H](CNC(=O)c3cc(Br)c(Br)[nH]3)[C@@H](CNC(=O)c3cc(Br)c(Br)[nH]3)[C@@H]4O[C@H]3[C@H](CNC(=O)c4cc(Br)c(Br)[nH]4)[C@@H](CNC(=O)c4cc(Br)c(Br)[nH]4)[C@H]4[C@]5(O)NC(=N)N[C@@H]5O[C@@H]5NC(=N)N[C@]534)[C@]2(O)N1 [STYLISSADINE B],1800,–
[3H]c1ccc([C@H](C)N/C(=N/C#N)Nc2cccc3ncccc23)cc1,–,IC50 [4]: 10 nM
CN([C@@H](Cc1ccc(OS(=O)(=O)c2cccc3cnccc23)cc1)C(=O)N1CCN(c2ccccc2)CC1)S(=O)(=O)c1cccc2cnccc12,300,–
